Tests used:
[1] = Gelation experiment (gel formation in solvents); format: physicochemical; design: key to Gelation properties: g = gel; i = insoluble; p = precipitate; sol = soluble
Procedure: To obtain a gel or to thicken the solvent, the compound is mixed with the required solvent or a mixture of solvents in an amount between 0.01 and 50 wt. %, based on the weight of the composition. Typically, the dissolution of the components will be performed by heating (in some cases it may be helpful to homogenize the components, e.g., vortex) them together at temperatures of 20° C. to 200° C., preferably 50° C. to 150° C. Cooling these hot solutions to a preferred temperature in the range of −20° C. to 100° C., preferably 4° C. to 100° C. affords the gel or thickened solvent. […] In an alternative embodiment, the gelling agent is first dissolved in a polar or apolar solvent followed by the addition of another solvent or solvent mixture, thereby causing gelation to take place.
It will be understood that the use of the present gelling agents or thickeners to prepare a gel or to thicken a composition is also encompassed by the invention. As is well-known, gelling behavior of compounds or compositions is highly unpredictable. […] Preferably, the gelling phenomenon is thermoreversible.
In a typical gelation experiment, a carefully weighed amount of the dithienylcyclopentene derivative under investigation and 1 ml of the solvent are placed in a test tube, which is sealed and then heated until the compound is dissolved. The solution is allowed to cool to room temperature. […] The gelation process could be followed by UV-vis and CD spectroscopy as depicted in FIG. 58. At low concentrations (0.35 mM), compound D is dissolved in toluene. […] Increasing the concentration to 1.8 mM causes gelation of the solvent, which is accompanied by a change of the UV-visible spectrum, together with the appearance of a strong CD signal at 323 nm (FIG. 58, panels (a) and (c)). Similar changes in the UV-vis and CD spectrum are observed upon gelation of the 1.8 mM solution of D in toluene by cooling to a temperature below the sol-gel phase transition (from here on, referred to as gel(o)). From a plot of the increase of the CD signal versus the temperature, the sol-gel phase transition temperature of gel(o) was determined to be 29° C. for a 1.8 mM solution of D in toluene.

[2] = Gelation in the presence of surfactants and polymeric micelles; format: physicochemical; design: key: G = gel; C = crystalline; G^a: ^a= not stable
[3] = tested on: pB104 strain (MscL null E. coli); assay: Growth assay of MscL mutants on agar plates with or without IPTG; format: cell-based; design: key: ++++: growth equal to cells expressing wild-type MscL; growth is indicated by ++++ to −; growth is indicated by ++++ to −; growth is indicated by ++++ to −; −: an absence of growth; details: pB104 with Lac-inducible plasmid; for Growth on agar plates +IPTG: with IPTG; for Growth on agar plates −IPTG: without IPTG
Procedure: The constructs of the MscL-6His mutants were constructed using standard molecular biology techniques. The mutants were tested in the pB104 strain (MscL null E. coli) by a growth assay on agar plates with or without IPTG (K. Yoshimura et al., 1999, Biophys. J. 77:1960-1972).
The first phenotype (++) grows like the single G22S mutant.

O=C(O)C(Cc1ccccc1)NC(=O)[C@H]1C[C@@H](C(=O)NC(Cc2ccccc2)C(=O)O)C[C@@H](C(=O)NC(Cc2ccccc2)C(=O)O)C1 (mixture of isomers) [10a, CHexAmPheOH (mixture of isomers)]
solvents gelated [1]: water

O=C(NC(Cc1ccccc1)C(=O)O)C1CC(C(=O)NC(Cc2ccccc2)C(=O)O)CC(C(=O)NC(Cc2ccccc2)C(=O)O)C1 (single isomer, unassigned) [LLL diasteroisomer, CHexAmPheOH]
solvents gelated [1]: only gelates lower alcohols

O=C(N[C@@H](Cc1ccccc1)C(=O)O)[C@H]1C[C@@H](C(=O)N[C@H](Cc2ccccc2)C(=O)O)C[C@@H](C(=O)N[C@H](Cc2ccccc2)C(=O)O)C1 [10b, CHexAmPheOH (DDL)]
solvents gelated [1]: water

CC(C)[C@H](NC(=O)[C@H]1C[C@@H](C(=O)N[C@H](C(=O)O)C(C)C)C[C@@H](C(=O)N[C@H](C(=O)O)C(C)C)C1)C(=O)O [CHex-Am-Val-OH]
solvents gelated [1]: water

Cc1sc(C(=O)Nc2ccccc2)cc1C1=C(c2cc(C(=O)Nc3ccccc3)sc2C)CCC1 [Compound C, 1,2-Bis(5′-(anilinocarbonyl)-2′-methyl-thien-3′-yl) cyclopentene]
solvents gelated [1]: 1-phenyloctane, toluene, n-butylether, benzene, tetralin

Cc1sc(C(=O)N[C@H](C)C2CCCCC2)cc1C1=C(c2cc(C(=O)N[C@H](C)C3CCCCC3)sc2C)CCC1 [Compound E, 1,2-Bis(2′-methyl-5′-{(((R)-1-cyclohexylethyl)amino)carbonyl}thien-3′-yl)cyclopentene]
solvents gelated [1]: hexadecane, cyclohexane, 1-phenyloctane, toluene, n-butylether, benzene, tetralin, 1,4-dioxane, and n-butyl acetate

O=C(OCCO)[C@H](Cc1ccccc1)NC(=O)[C@H]1C[C@@H](C(=O)N[C@@H](Cc2ccccc2)C(=O)OCCO)C[C@@H](C(=O)N[C@@H](Cc2ccccc2)C(=O)OCCO)C1 [gelator 2, CHexAmPheOCH2CH2OH]
solvents gelated [1]: water and lower alcohols | Gelation properties ([2]; Nonionic (Lactose der.) < CMC): G^a | Gelation properties ([2]; Nonionic (Lactose der.) > CMC): G^a | Gelation properties ([2]; Pluronic P 105, 5 mg · ml^−1): g^a | Gelation properties ([2]; Pluronic P 105, 100 mg · ml^−1): g^a | Gelation properties ([2]; anionic (SDS) < CMC): G^a | Gelation properties ([2]; anionic (SDS) > CMC): G^a | Gelation properties ([2]; cationic (CTAB) < CMC): G^a | Gelation properties ([2]; cationic (CTAB) > CMC): G^a

COC(=O)CC[C@H](NC(=O)[C@H]1C[C@@H](C(=O)N[C@@H](CCC(=O)OC)C(=O)OC)C[C@@H](C(=O)N[C@@H](CCC(=O)OC)C(=O)OC)C1)C(=O)OC [gelator 7, CHexAmGluOMe]
solvents gelated [1]: both organic solvents and water

COC(=O)C[C@H](NC(=O)[C@H]1C[C@@H](C(=O)N[C@@H](CC(=O)OC)C(=O)OC)C[C@@H](C(=O)N[C@@H](CC(=O)OC)C(=O)OC)C1)C(=O)OC [gelator 8, CHexAmAspOMe]
solvents gelated [1]: both organic solvents and water

CC(NC(=O)[C@H](Cc1ccccc1)NC(=O)[C@H]1C[C@@H](C(=O)N[C@@H](Cc2ccccc2)C(=O)N[C@H](C)C(=O)O)C[C@@H](C(=O)N[C@@H](Cc2ccccc2)C(=O)N[C@H](C)C(=O)O)C1)C(=O)O (some centres unmarked) [gelator 11, CHexAm(L)Phe(D)AlaOH]
solvents gelated [1]: water and lower alcohols

O=C(O)CCNC(=O)[C@H](Cc1ccccc1)NC(=O)[C@H]1C[C@@H](C(=O)N[C@@H](Cc2ccccc2)C(=O)NCCC(=O)O)C[C@@H](C(=O)N[C@@H](Cc2ccccc2)C(=O)NCCC(=O)O)C1 [gelator 12, cHexAm(L)Phe(β)AlaOH]
solvents gelated [1]: water

COC(=O)[C@H](Cc1c[nH]cn1)NC(=O)[C@H](CCSC)NC(=O)[C@@H]1C[C@H](C(=O)NC(CCSC)C(=O)N[C@H](Cc2c[nH]cn2)C(=O)OC)C[C@H](C(=O)N[C@@H](CCSC)C(=O)N[C@@H](Cc2c[nH]cn2)C(=O)OC)C1 (some centres unmarked) [gelator 14, CHexAmMetHisOMe]
solvents gelated [1]: water

(1S,2S) CHex-bisurea dihexylamine [5a]
Gelation properties ([1]; 1 N NaHCO3): i | Gelation properties ([1]; 1 N NaOH): i | Gelation properties ([1]; 25% Ammonia): g | Gelation properties ([1]; buffer PH 5.7): sol | Gelation properties ([1]; buffer PH 7.2): p | Gelation properties ([1]; buffer PH 7.9): g | Gelation properties ([1]; water): g

CHex-Am-Met-Am-Borate
solvents gelated [1]: water and lower alcohols

CHex-Am-Met-Am-EtOH
solvents gelated [1]: water

CHex-Am-Phe-Am-Borate
solvents gelated [1]: water and lower alcohols

CHex-Am-Ser(Bzl)-Am-Borate
solvents gelated [1]: water and lower alcohols

CHexAmPheAmGluOH [gelator 13]
solvents gelated [1]: water

racemic CHex-bisurea dihexylamine [5b]
Gelation properties ([1]; 1 N NaHCO3): sol | Gelation properties ([1]; 1 N NaOH): g | Gelation properties ([1]; 25% Ammonia): g | Gelation properties ([1]; buffer PH 5.7): sol | Gelation properties ([1]; buffer PH 6.3): sol | Gelation properties ([1]; buffer PH 7.2): g | Gelation properties ([1]; buffer PH 7.9): g | Gelation properties ([1]; water): g

B1: E06/G22S (protein, UniProt P0A742 1-136, looked up, variant E6H G22S)
Large-conductance …: MSIIKHFREFAMRGNVVDLAVSVIIGAAFGKIVSSLVADIIMPPLGLLIGGIDFKQFAVTLRDAQGDIPAVVMHYGVFIQNVFDFLIVAFAIFMAIKLINKLNRKKEEPAAAPAPTKEEVLLTEIRDLLKEQNNRS
Growth on agar plates +IPTG [3]: +++ | Growth on agar plates −IPTG [3]: ++++

B2: A11H/G22S (protein, UniProt P0A742 1-136, looked up, variant A11H G22S)
Large-conductance …: MSIIKEFREFHMRGNVVDLAVSVIIGAAFGKIVSSLVADIIMPPLGLLIGGIDFKQFAVTLRDAQGDIPAVVMHYGVFIQNVFDFLIVAFAIFMAIKLINKLNRKKEEPAAAPAPTKEEVLLTEIRDLLKEQNNRS
Growth on agar plates +IPTG [3]: ++ | Growth on agar plates −IPTG [3]: ++++

B3: A11H (protein, UniProt P0A742 1-136, looked up, variant A11H)
Large-conductance …: MSIIKEFREFHMRGNVVDLAVGVIIGAAFGKIVSSLVADIIMPPLGLLIGGIDFKQFAVTLRDAQGDIPAVVMHYGVFIQNVFDFLIVAFAIFMAIKLINKLNRKKEEPAAAPAPTKEEVLLTEIRDLLKEQNNRS
Growth on agar plates +IPTG [3]: ++++ | Growth on agar plates −IPTG [3]: ++++

B4: R13H/G22S (protein, UniProt P0A742 1-136, looked up, variant R13H G22S)
Large-conductance …: MSIIKEFREFAMHGNVVDLAVSVIIGAAFGKIVSSLVADIIMPPLGLLIGGIDFKQFAVTLRDAQGDIPAVVMHYGVFIQNVFDFLIVAFAIFMAIKLINKLNRKKEEPAAAPAPTKEEVLLTEIRDLLKEQNNRS
Growth on agar plates +IPTG [3]: − | Growth on agar plates −IPTG [3]: ++++

B5: F10H/G22S (protein, UniProt P0A742 1-136, looked up, variant F10H G22S)
Large-conductance …: MSIIKEFREHAMRGNVVDLAVSVIIGAAFGKIVSSLVADIIMPPLGLLIGGIDFKQFAVTLRDAQGDIPAVVMHYGVFIQNVFDFLIVAFAIFMAIKLINKLNRKKEEPAAAPAPTKEEVLLTEIRDLLKEQNNRS
Growth on agar plates +IPTG [3]: + | Growth on agar plates −IPTG [3]: ++++

B6: M12H/G22S (protein, UniProt P0A742 1-136, looked up, variant M12H G22S)
Large-conductance …: MSIIKEFREFAHRGNVVDLAVSVIIGAAFGKIVSSLVADIIMPPLGLLIGGIDFKQFAVTLRDAQGDIPAVVMHYGVFIQNVFDFLIVAFAIFMAIKLINKLNRKKEEPAAAPAPTKEEVLLTEIRDLLKEQNNRS
Growth on agar plates +IPTG [3]: ++ | Growth on agar plates −IPTG [3]: ++++

B7: M12H (protein, UniProt P0A742 1-136, looked up, variant M12H)
Large-conductance …: MSIIKEFREFAHRGNVVDLAVGVIIGAAFGKIVSSLVADIIMPPLGLLIGGIDFKQFAVTLRDAQGDIPAVVMHYGVFIQNVFDFLIVAFAIFMAIKLINKLNRKKEEPAAAPAPTKEEVLLTEIRDLLKEQNNRS
Growth on agar plates +IPTG [3]: ++++ | Growth on agar plates −IPTG [3]: ++++

B8: F10H (protein, UniProt P0A742 1-136, looked up, variant F10H)
Large-conductance …: MSIIKEFREHAMRGNVVDLAVGVIIGAAFGKIVSSLVADIIMPPLGLLIGGIDFKQFAVTLRDAQGDIPAVVMHYGVFIQNVFDFLIVAFAIFMAIKLINKLNRKKEEPAAAPAPTKEEVLLTEIRDLLKEQNNRS
Growth on agar plates +IPTG [3]: ++++ | Growth on agar plates −IPTG [3]: ++++
